Molecular target: T1, HRP (Armoracia rusticana, UniProt P00433)
T1 sequence (P00433 31-338): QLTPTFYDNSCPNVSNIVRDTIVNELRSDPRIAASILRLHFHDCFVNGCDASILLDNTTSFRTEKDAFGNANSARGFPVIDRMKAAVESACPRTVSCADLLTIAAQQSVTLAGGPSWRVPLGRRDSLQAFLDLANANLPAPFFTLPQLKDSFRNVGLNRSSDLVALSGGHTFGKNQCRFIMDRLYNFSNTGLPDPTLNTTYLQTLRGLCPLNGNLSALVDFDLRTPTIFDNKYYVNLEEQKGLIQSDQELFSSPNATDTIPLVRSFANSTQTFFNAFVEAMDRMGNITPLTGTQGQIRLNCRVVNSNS
Assay: Detection of HRP with acridan substrate 13 by chemiluminescence and fluorescence (FIG. 5)
Assay type: biochemical, horseradish
Details: 0.05 mM substrate
Method: FIG. 5 is a graph showing the linearity of detection of HRP using reagent compositions containing substrate 13 with fluorescence and chemiluminescence detection. A solution containing 0.05 mM compound 13, 0.1 mM 4-phenylphenol, 0.5 mM urea peroxide, 1 mM EDTA, 0.025% TWEEN 20 in 10 mM tris, pH 8.0 was reacted with the indicated quantities of HRP. Chemiluminescence intensity was measured 10 min after addition of enzyme, fluorescence at 515 nm was measured 30 min after addition of enzyme.
Chemiluminescent HRP detection limit using a reagent composition containing 0.05 mM 2′,3′,6′-trifluorophenyl 3-methoxy-10-methylacridan-9-carboxylate (compound 13), 0.1 mM 4-phenylphenol, 0.5 mM urea peroxide, 1 mM EDTA, and 0.025% TWEEN 20 in 0.01 M tris buffer, pH 8.0 was obtained on a Labsystems Luminoskan microtiter plate reader. White Microlite 1 FB 12-well strips (Dynatech Laboratories) containing 100 μL of the reagent in each well were reacted with 10 μL of HRP dilutions. Light intensity was measured at 10 min.
Sensitive detection of HRP was achieved using the reaction solutions of Example 22 producing fluorescence by the second mode. After making the chemiluminescence measurement, the strips were transferred to the fluorometer and fluorescence intensity determined at 530 nm with excitation at 380 nm.

## COc1ccc2c(c1)N(C)c1ccccc1C2C(=O)Oc1c(F)ccc(F)c1F (centres unmarked) [Compound 13, 2′,3′,6′-trifluorophenyl 3-methoxy-10-methylacridan-9-carboxylate]
Tris pH 8.0, fluorescence at 530 nm, excitation 380 nm
  Detectable amount of HRP (fluorescence, second mode): less than 1 amol
Tris pH 8.0, same reaction solutions
  Sensitivity of fluorescent detection compared with chemiluminescent detection (in words): equivalent to chemiluminescent detection

Source: patent US6897036B2, “Fluorescent detection of peroxidase enzymes” (Lumigen, Inc., priority 2002, dated 2005)
